Common to all, as to type: cell-based
Data set [1] concerns endogenous DcpS exon 4 splice site. The experiment in a line: Antisense splice switching of endogenous DcpS, splicing patterns by RT-PCR. As to conditions: 293T cells. The protocol: FIG. 6. Splice switching of endogenous DcpS intron 4 to the DcpS^In15 alternative site. Vivo-morpholino antisense oligonucleotide (red line) was added to GM03813 cells and DcpS splicing tested. Schematic on lower right depicts the splicing pattern resulting with the indicated concentration of vivo-morpholino and arrows denote the primers used. Endogenous splicing is inhibited and shifted to the alternative site 45nt downstream as well as exon 4 skipping. Bottom panel is a control of exon2-exon3 junction not affected by the oligonucleotide. An exemplary antisense molecule comprises 5′ TTCCAGCCAGAAA CCTTTACCTGCT 3′ (SEQ ID NO: 1). However, antisense oligonucleotides can be designed to hybridize to the any contiguous 20-25 mer present in the DcpS variant sequence shown in FIG. 6.
Shifting of the endogenous DcpS gene to express the DcpS^In15 variant can also be accomplished by antisense oligonucleotide splice switching technology. With this approach, an antisense oligonucleotide complementary to the endogenous splice site is used to block the endogenous site and shift the splicing pattern to the DcpS^In15 pattern in SMA patient cells. The objective is to alter the endogenous DcpS splicing in order to generate sufficient levels of DcpS^In15 thereby elevating SMN2 gene expression and increasing levels of full length SMN protein. 293T cells were treated with 5 μM antisense morpholino oligonucleotide containing a cell permeable guanidinium based dendramer delivery system (vivo-morpholino; GeneTools LLC) for 24 hours and splicing patterns determined by RT-PCR. […] Instead ˜50% of the splicing utilizes the DcpS^In15 splice site 45 nucleotides downstream analogous to that observed in the homozygous DcpS^In15 ID patient cells, and ˜50% results in both sites being blocked and skipping of exon 4 entirely. In the latter case (lower panel in FIG. 6), splicing bypasses exon 4 and goes from exon 3 to exon 5. […] The invention also encompasses optimized oligonucleotide sequences comprising altered nucleotide backbones, and small molecules that can shift splicing to further improve levels of DcpS^In15, thereby elevating SMN2 levels and providing a therapeutic intervention for SMA patients.

For data set [2], the system named is fl-SMN2 mRNA. Briefly: fl-SMN2 mRNA in GM03813 SMA patient cells expressing DcpS variants. As to conditions: GM03813 cells knocked down for DcpS, stably expressing shRNA-resistant DcpS variant. The protocol: (§1) FIGS. 3A-3C. DcpS^In15 increases fl-SMN2 mRNA and SMN protein in GM03813 SMA patient cells. FIG. 3A. fl-SMN2 mRNA levels were tested in GM03813 cells knocked down for DcpS and stably expressing the indicated shRNA-resistant DcpS variants. […] (Average of three biological replicates) FIG. 3B. Western of SMN and DcpS proteins from cells used in A. (Average of two biological replicates). FIG. 3C. SMN protein levels increase in GM0813 cells expressing DcpS^In15 with a background of endogenous levels of DcpS protein.

Data set [3] concerns SMN protein. The experiment in a line: Western of SMN protein in GM03813 SMA patient cells expressing DcpS variants. As to conditions: background of reduced endogenous DcpS. The protocol:
as §1

Consider “5′ TTCCAGCCAGAAA CCTTTACCTGCT 3′ (antisense TTCCAGCCAGAAACCTTTACCTGCT; vivo-morpholino guanidinium dendrimer delivery moiety, chemistry not fully specified) [vivo-morpholino oligonucleotide, antisense morpholino oligonucleotide containing a cell permeable guanidinium based dendramer delivery system (vivo-morpholino; GeneTools LLC)]”, for which, in data set [1] (5 μM, 24 hours, RT-PCR), the “splicing that utilizes the DcpS^In15 splice site 45 nucleotides downstream” value is about 50%; the “splicing with both sites blocked and skipping of exon 4 entirely” value is reported as about 50%; the “utilization of the endogenous exon 4 splice site” value was “completely inhibits”. In data set [1] (antisense oligonucleotide splice switching), the “level of DcpS^In15 mRNA” value is “increased level”.

B1: wild type: wild type DcpS (scavenger decapping enzyme) used to complement DcpS knockdown cells (protein, UniProt Q96C86 2-337, looked up)
m7GpppX diphosphatase: ADAAPQLGKRKRELDVEEAHAASTEEKEAGVGNGTCAPVRLPFSGFRLQKVLRESARDKIIFLHGKVNEASGDGDGEDAVVILEKTPFQVEQVAQLLTGSPELQLQFSNDIYSTYHLFPPRQLNDVKTTVVYPATEKHLQKYLRQDLRLIRETGDDYRNITLPHLESQSLSIQWVYNILDKKAEADRIVFENPDPSDGFVLIPDLKWNQQQLDDLYLIAICHRRGIRSLRDLTPEHLPLLRNILHQGQEAILQRYRMKGDHLRVYLHYLPSYYHLHVHFTALGFEAPGSGVERAHLLAEVIENLECDPRHYQQRTLTFALRADDPLLKLLQEAQQS
Turning to B1, the “fl-SMN2 mRNA levels” value in data set [2] was “not observed”. Further, the “SMN protein level (Western)” value in data set [3] is “not observed”.

The values are drawn from patent US20170355956A1, “COMPOSITIONS FOR INCREASING SURVIVAL OF MOTOR NEURON PROTEIN (SMN) LEVELS IN TARGET CELLS AND METHODS OF USE THEREOF FOR THE TREATMENT OF SPINAL MUSCULAR ATROPHY” (RUTGERS, THE STATE UNIVERSITY OF NEW JERSEY, priority 2014, published 2017).
